Measured values as given in patent publication US20250034586A1, “METHOD FOR EDITING BANANA GENES” (Tropic Biosciences UK Limited, priority 2021, published 2025).

Assays:
[1] = test system: Banana embryogenic cell suspensions (ECS); assay: CSF kill curves in banana ECS (number of embryos after short CSF treatment); type: cell-based; details: for Number of banana embryos developed (Avg): 3 months after treatment
Protocol: Banana embryogenic cell suspensions (ECS) were pelleted in a falcon tube and mixed with CS (cell suspension) medium to a final cell density of 1-3%. An equal volume of the mixture was split into 6 flasks and the relevant amount of CSF was added to the final concentrations of 0, 10, 20, 50, 100 and 500 μg/L (1st kill curve) or 0, 0.5, 5, 50 and 100 mg/L (2nd kill curve). The ECS-CSF mixtures were placed/inoculated in 6 well plates (5 mL per well) and incubated at 65 rpm in the dark for 3, 5, 10, 15 days at 25° C.
At each time point, the ECS were collected in a cell strainer and washed with CS (cell suspension) medium to remove all the CSF. The cells were collected from the strainer and inoculated into embryo developing media (EDM) plates and developed for 2-3 months (until fully developed embryos were observed). The cells/embryos were subcultured every month. Each treatment was performed in triplicate and treated independently.
The number of embryos was assessed 2-3 months after CSF treatment. The embryos were counted under a stereo microscope using a 50-square grid to help the counting. For plates with too many embryos, only 3 squares from the 50 were counted and then the number of embryos was normalised for all of the plate. For the other plates all embryos were counted. Mean values±standard deviation (Stdev) were obtained from 3 technical replicates.

[2] = test system: banana embryos or leaf material; assay: Comparison of selection using ALS inhibitor, G418 or hygromycin (genotyping of embryos or leaf material); type: cell-based
Excerpt: In every case, regenerated material was transformed with constructs containing T-DNA that would generate resistance in positive transformants.

Rice protoplasts = details: for 10dd; cited from earlier work
[3] = test system: Marchantia polymorpha spores; details: (180 μg/L) for 7dd; cited from earlier work

Compound: COc1nc(C)nc(NC(=O)NS(=O)(=O)c2ccccc2Cl)n1 [CSF, chlorsulfuron]
- Embryo number, 1st CSF kill curve ([1]; 0, 10, 20, 50, 200, 500 μg/L CSF for 3, 5, 10 and 15 days): major differences in embryo number were not observed
- Fold-change non-CSF/+CSF (number of embryos) ([1]; 0.5 mg/L CSF for 5dd): 2.9
- Number of banana embryos developed (Avg) ([1]; 0.5 mg/L CSF for 5dd, 3 technical replicates): 1109
- Fold-change non-CSF/+CSF (number of embryos) ([1]; 0.5 mg/L CSF for 10dd): 32.6
- Number of banana embryos developed (Avg) ([1]; 0.5 mg/L CSF for 10dd): 127
- Fold-change non-CSF/+CSF (number of embryos) ([1]; 0.5 mg/L CSF for 15dd): 22.3
- Number of banana embryos developed (Avg) ([1]; 0.5 mg/L CSF for 15dd): 217
- Fold-change non-CSF/+CSF (number of embryos) ([1]; 5 mg/L CSF for 5dd): 24.9
- Number of banana embryos developed (Avg) ([1]; 5 mg/L CSF for 5dd): 127
- Fold-change non-CSF/+CSF (number of embryos) ([1]; 5 mg/L CSF for 10dd): 229.9
- Number of banana embryos developed (Avg) ([1]; 5 mg/L CSF for 10dd): 18
- Fold-change non-CSF/+CSF (number of embryos) ([1]; 5 mg/L CSF for 15dd): 167.0
- Number of banana embryos developed (Avg) ([1]; 5 mg/L CSF for 15dd): 29
- Decrease in the number of embryos ([1]; 5 mg/L CSF for 10 days): higher than 200 ×
- Fold-change non-CSF/+CSF (number of embryos) ([1]; 50 mg/L CSF for 5dd): 54.5
- Number of banana embryos developed (Avg) ([1]; 50 mg/L CSF for 5dd): 58
- Fold-change non-CSF/+CSF (number of embryos) ([1]; 50 mg/L CSF for 10dd): 459.8
- Number of banana embryos developed (Avg) ([1]; 50 mg/L CSF for 10dd): 9
- Fold-change non-CSF/+CSF (number of embryos) ([1]; 50 mg/L CSF for 15dd): 1210.5
- Number of banana embryos developed (Avg) ([1]; 50 mg/L CSF for 15dd): 4
- Fold-change non-CSF/+CSF (number of embryos) ([1]; 100 mg/L CSF for 5dd): 55.5
- Number of banana embryos developed (Avg) ([1]; 100 mg/L CSF for 5dd): 57
- Fold-change non-CSF/+CSF (number of embryos) ([1]; 100 mg/L CSF for 10dd): 517.3
- Number of banana embryos developed (Avg) ([1]; 100 mg/L CSF for 10dd): 8
- Fold-change non-CSF/+CSF (number of embryos) ([1]; 100 mg/L CSF for 15dd): 345.9
- Number of banana embryos developed (Avg) ([1]; 100 mg/L CSF for 15dd): 14
- CSF concentrations at which colour changes in banana ECS were observed ([1]; 2nd kill curve, after treatment): higher than 5 mg/L
- Minimal lethal dose (concentration reducing number of embryos 100×; measure of success met) ([1]; 10 days of treatment): 5 mg/L
- Killing of banana cells ([1]; five days of treatment, 2nd kill curve): inefficient for killing banana cells
- Editing frequency ([2]; CSF selected material): 90-94%
- Efficiency of generating transgenic lines of banana ([2]; CSF selection, embryos and shoots): 75-84%
- Editing frequency ([2]; Embryos, CSF selection): 57/63 = 90.5%
- Non-transgenic edited ([2]; Embryos, CSF selection): 19/584 = 3.2%
- Transgenic frequency ([2]; Embryos, CSF selection): 344/408 = 84.3%
- Editing frequency ([2]; Shoots, CSF selection): 34/36 = 94.4%
- Non-transgenic edited ([2]; Shoots, CSF selection): 3/46 = 6.5%
- Transgenic frequency ([2]; Shoots, CSF selection): 53/70 = 75.7%
- CSF concentration reported to be effective (Rice protoplasts): 3.6 µg/L
- CSF concentration reported to be effective [3]: 0.5 µM
